Read-outs that look alike come from different tables or passages of the source.
What was measured:
Format in all cases: physicochemical
[1] = Hygroscopicity analysis (weight gain, Chinese Pharmacopoeia 2020 guideline 9103); conditions: 25° C.±1° C., 24 hours; for Weight Gain: constant humidity
Experimental: 1) a dry glass weighing bottle with a plug (with an outer diameter of 50 mm and a height of 15 mm) was taken and placed in a proper constant-temperature dryer (the lower part was placed with ammonium chloride or ammonium sulfate saturated solution) at 25° C.±1° C. one day before the test; and the weight of the weighing bottle was precisely measured (m 1).
2) a proper amount of the test sample was taken, tiled in the weighing bottle, wherein the thickness of the test sample was about 1 mm, and the weight of the test sample was precisely measured (m 2). 3) the weighing bottle was opened, and placed with its bottle cap under the constant temperature and humidity conditions for 24 hours.
4) the bottle cap was covered well and the weight of […] was precisely measured (m 3).
According to 9103 guideline principle on drug hygroscopicity test in four part of Chinese Pharmacopoeia 2020 edition, the description of hygroscopicity characteristics and the definition of hygroscopicity weight gain are as follows:
Deliquescence: enough water is absorb to form liquid.
Extremely hygroscopic: the weight gain due to hygroscopicity is not less than 15%.
Hygroscopic: the weight gain due to hygroscopicity is less than 15% but not less than 2%.
Slightly hygroscopic: the weight gain due to hygroscopicity is less than 2% but not less than 0.2%.
No or almost no hygroscopicity: the weight gain due to hygroscopicity is less than 0.2%.

[2] = Solubility analysis in water and media of different pH, HPLC; conditions: for solubility thermodynamic: thermodynamic from solid, read-out: Concentration
Experimental: The excessive test sample was put into a dissolution instrument cup, added with water and an appropriate amount of water-soluble medium with different pH values (pH=1.2, 2.2, 4.0, 4.5, 5.5, 6.8), stirred at 37° C.±1° C. (rotation speed: 100 r/min) for dissolution (more than 6 hours) to form a […] solution, the saturated solution was filtered, the filtrate was diluted with a mobile phase by corresponding times, the concentration was measured by HPLC method, and the solubility was calculated.

[3] = Oil-water distribution coefficient log P (n-octanol-water) by HPLC retention time; conditions: HPLC retention time against standards of known log P
Text: The standard substance having known log P (n-octanol-water) was used, the log P (n-octanol-water) of the substance to be tested was detected by HPLC. The principle is based on the fact that the retention time of chemical substances in a long hydrocarbon chain chromatographic column such as C18 column is related to their hydrocarbon-water distribution coefficient. Hydrophilic substances are eluted first, lipophilic substances are eluted later, and the oil-water distribution coefficient and the retention time are in a linear relationship, and the equation is as follows: [formula] [formula] log P: oil-water partition coefficient of samples (n-octanol-water); T0: dead time (measured by uracil here); Tn: retention time of samples by HPLC; according to the above formula, a linear relationship formula can be established by detecting the retention time of the standard substance and the known log P (n-octanol-water). The theoretical value of log P is used as the ordinate, the log K value is used as the abscissa for drawing, the values of a and b are obtained through calculation, and then the retention time (namely the log K value in the table) of samples to be detected is substituted into the equation to calculate the log P (n-octanol-water) value of samples.

[4] = Fluidity detection: angle of repose by fixed cone bottom method; conditions: average of three, <30° fluidity better, >40° poor
Text: Measurement of angle of repose: a fixed cone bottom method was used, the funnel was fixed on a horizontal coordinate paper at a proper height, so that the distance from a lower opening of the funnel to the coordinate paper was H, the powder was carefully poured into the funnel until the tip of a cone formed below the funnel contacted an outlet of the funnel, the radius r of the cone can be measured by the coordinate paper, and measured three times continuously, and the average value was taken as the result. The angle of repose a was calculated as follows: […]
Judgment standard: when the angle of repose is <30°, the fluidity is better. When the angle of repose is >40°, the fluidity is poor.

[5] = Water for injection, 37° C.±1° C.

SMILES | Hygroscopicity [1] | Weight Gain [1] | Concentration [2, 5] | Equilibrium Solubility [2, 5] | Concentration ([2]; pH = 1.2, 37° C.±1° C.) | Equilibrium Solubility ([2]; pH = 1.2, 37° C.±1° C.) | Concentration ([2]; pH = 2.2, 37° C.±1° C.) | Equilibrium Solubility ([2]; pH = 2.2, 37° C.±1° C.) | Concentration ([2]; pH = 4.0, 37° C.±1° C.) | Equilibrium Solubility ([2]; pH = 4.0, 37° C.±1° C.) | Concentration ([2]; pH = 4.5, 37° C.±1° C.) | Equilibrium Solubility ([2]; pH = 4.5, 37° C.±1° C.) | Concentration ([2]; pH = 5.5, 37° C.±1° C.) | Equilibrium Solubility ([2]; pH = 5.5, 37° C.±1° C.) | Equilibrium Solubility ([2]; pH = 6.8, 37° C.±1° C.) | log P (n-octanol-water) [3] | Angle of Repose [4] | other results
Cc1cncc(CN2CCC(=C3c4ccccc4CC(=O)c4sccc43)CC2)c1.O=C(O)/C=C/C(=O)O [Crystalline form A, 4-[1-[(5-methylpyridin-3-yl)methyl]piperidyl-4-ylidene]-4,9-dihydro-10H-benzo[4,5]cycloheptyl[1,2-b]thiophen-10-one fumarate] | Slightly hygroscopic (the weight gain due to hygroscopicity is less than 2% but not less than 0.2%) | 0.3% | 1790 µg/mL | 448.75 mg/250 ml | 26680 µg/mL | 6669.86 mg/250 ml | 3000 µg/mL | 751.00 mg/250 ml | 2290 µg/mL | 571.88 mg/250 ml | 2990 µg/mL | 747.72 mg/250 ml | 340 µg/mL | 84.93 mg/250 ml | 3.39 mg/250 ml | 2.8 | 47° | 
Cc1cncc(CN2CCC(=C3c4ccccc4CC(=O)c4sccc43)CC2)c1.O=C(O)/C=C/C(=O)O [Crystalline form B, 4-[1-[(5-methylpyridin-3-yl)methyl]piperidyl-4-ylidene]-4,9-dihydro-10H-benzo[4,5]cycloheptyl[1,2-b]thiophen-10-one fumarate] | Slightly hygroscopic (the weight gain due to hygroscopicity is less than 2% but not less than 0.2%) | 0.2% | 1220 µg/mL | 305.45 mg/250 ml | 29420 µg/mL | 7355.56 mg/250 ml | 2640 µg/mL | 659.74 mg/250 ml | 1410 µg/mL | 352.76 mg/250 ml | 1360 µg/mL | 339.48 mg/250 ml |  | 44.97 mg/250 ml | 2.56 mg/250 ml |  | 50° | solubility thermodynamic ([2]; water-soluble medium of pH 5.5, 37 °C, pH 5.5, aqueous buffer, pH = 5.5, 37° C.±1° C.): 0.18 mg/mL; solubility thermodynamic ([2]; water-soluble medium of pH 6.8, 37 °C, pH 6.8, aqueous buffer, pH = 6.8, 37° C.±1° C.): 0.01 mg/mL; chromatographic logP [3]: 2.9
Cc1cncc(CN2CCC(=C3c4ccccc4CC(=O)c4sccc43)CC2)c1.O=C(O)/C=C/C(=O)O [Crystalline form C, 4-[1-[(5-methylpyridin-3-yl)methyl]piperidyl-4-ylidene]-4,9-dihydro-10H-benzo[4,5]cycloheptyl[1,2-b]thiophen-10-one fumarate] | No or almost no hygroscopicity (the weight gain due to hygroscopicity is less than 0.2%) | 0.06% | 2460 µg/mL | 616.34 mg/250 ml |  | 4908.73 mg/250 ml |  | 1013.35 mg/250 ml | 2840 µg/mL | 710.90 mg/250 ml | 3770 µg/mL | 942.80 mg/250 ml | 310 µg/mL | 77.90 mg/250 ml | 4.40 mg/250 ml | 3.2 | 28° | solubility according to the classification system of biopharmaceuticals ([2]; medium with pH=6.8): slightly superior to that of other crystal forms; Concentration ([2]; pH = 6.8, 37° C.±1° C.): 18 µg/mL; solubility thermodynamic ([2]; water-soluble medium of pH 1.2, 37 °C, pH 1.2, simulated gastric fluid, pH = 1.2, 37° C.±1° C.): 19.6 mg/mL; solubility thermodynamic ([2]; water-soluble medium of pH 2.2, 37 °C, pH 2.2, aqueous buffer, pH = 2.2, 37° C.±1° C.): 4.05 mg/mL; Angle of Repose ([4]; listed as crystalline form C): less than 30 °
Cc1cncc(CN2CCC(=C3c4ccccc4CC(=O)c4sccc43)CC2)c1.O=C(O)/C=C/C(=O)O [Mixed crystal, 4-[1-[(5-methylpyridin-3-yl)methyl]piperidyl-4-ylidene]-4,9-dihydro-10H-benzo[4,5]cycloheptyl[1,2-b]thiophen-10-one fumarate] | Slightly hygroscopic (the weight gain due to hygroscopicity is less than 2% but not less than 0.2%) | 0.4% | 1980 µg/mL | 495.71 mg/250 ml | 24470 µg/mL | 6117.84 mg/250 ml | 3400 µg/mL | 849.73 mg/250 ml | 2530 µg/mL | 633.71 mg/250 ml | 3430 µg/mL | 856.32 mg/250 ml |  | 76.85 mg/250 ml | 3.61 mg/250 ml | 2.7 | 49° | 

— patent US20260265234A1, “RUPATIFEN FUMARATE CRYSTAL FORM C, AND PREPARATION METHOD THEREFOR AND USE THEREOF” (FUJIAN MINDONG REJUENATION PHARMACEUTICAL CO., LTD., priority 2022, published 2026)
